From patent US20060265776A1, “Viability” (priority 2003, published 2006)
“Also recorded” adds a separate entry of the source.

How the values were obtained:
[1] = tested on: Arabidopsis cell cultures; assay: MTT assay of cell viability after elicitor or bacteria with or without ATP; type: cell-based; details: 1 mM ATP, 24 hours
[2] = tested on: Arabidopsis plants; assay: Foliar spray application, herbicidal activity; type: in vivo; details: 2 mL spray, 5 mM active ingredient, 0.02% (v/v) Tween 20, pH 6.7
Procedure: The inventors tested a range of compounds for their potential herbicidal activity. These consisted of several nonhydrolysable ATP analogues as well as nonhydrolysable analogues of GTP, another nucleotide triphosphate. Arabidopsis plants were grown hydroponically for 2 weeks as described in Example 6B. These plants, still attached to the polyurethane foam discs, were then transferred to phytatrays that contained sand. Plants grown under high humidity conditions, achieved in these enclosed phytatrays, tend to have poor or no development of the waxy cuticle and so are ideal for spray application of solutions with the aid of common surfactants like Tween 20. The plants in each tray were sprayed with 2 mL of an aqueous solution adjusted to pH 6.7 with KOH and containing 5 mM active ingredient and 0.02% (v/v) Tween 20. Control plants were sprayed with the same solution containing only Tween 20 but no active ingredient.

[3] = tested on: Arabidopsis plants; details: cited from earlier work
[4] = tested on: Arabidopsis thaliana cell suspension cultures; type: cell-based; details: for cell viability / cell death, in words: ADP 1 mM, AMP 1 mM, ATP 1 mM, glucose-6-phosphate 100 mM, boiled apyrase 50 units/ml, boiled hexokinase 200 units/ml with 100 mM glucose
Procedure: A. thaliana cell cultures were grown as described in example 1. Aliquots of the cell suspension (1.5 mL) were treated with a final concentration of 0, 20, 50, or 100 units/mL of apyrase. […] The dead cells had become buoyant and adhered to the walls of the vials, forming a ring just above the edge of the swirling medium. The ring of cells was sometimes dislodged and fell into the medium, resulting in apyrase-treated cultures having flakes of dead cells at the bottom of the vials.
To quantify the effect of apyrase on cell viability, the ability of the cells to grow and multiply subsequent to treatment was measured after diluting the cultures by over 30 times in fresh medium not containing any additives. This was achieved by transferring the cells treated for 3 days to 50 mL of fresh growth medium and allowing them to grow for a further 4 days. At the end of this period, triplicate 1 mL aliquots were sampled from the cultures and the volume of the cells was measured and expressed as a percentage of the culture volume. The method used to determine the packed cell volume was as follows: 1 mL cell culture aliquots were placed in 1.5 mL microfuge tubes and the cells gently compacted by centrifuging (1000 rpm., 10 minutes) in a swing-out rotor (Grundrotor 11030; Sigma laborzentrifugen GmbH, Oestrode, Germany). The level of the cells was marked on the wall of the tube and the volume of cells determined by measuring the volume of water needed to fill the tube to the marked level. The packed cell volume was expressed as the volume occupied by cells as a percentage of 1000 μL.
In each case the error bars represent the standard deviation.

[5] = tested on: Tobacco (Nicotiana tabacum), Arabidopsis, and bean (Phaseolus vulgaris) plants; assay: Leaf infiltration of extracellular ATP depletion systems, whole plants; type: in vivo; details: 0.5 units/μL apyrase, 1.85 units/μL hexokinase plus 100 mM glucose, 1-5 mM AMP-PCP (pH 6.5); ATP (pH 6.5)
Procedure: (§1) Tobacco (Nicotiana tabacum), Arabidopsis, and bean (Phaseolus vulgaris) plants were sown in soil and raised in a growth cabinet with a 16-hour photoperiod at 20° C. and 8 hours of darkness at 15° C. The relative humidity was maintained at 60% and the photon flux density was 250 μmolm^−2 s^−1. […] Only the cotyledons of bean plants were treated. The abaxial surface of a small zone of leaf tissue was treated by infiltrating the apoplast with the solution using a syringe and hypodermic needle. The three test solutions had the following concentrations of either: 0.5 units/μL apyrase, 1.85 units/μL hexokinase plus 100 mM glucose, or 1-5 mM AMP-PCP (pH 6.5).
The concentrations used were the same as defined above unless stated otherwise.

[6] = tested on: tobacco leaves; assay: Leaf infiltration, tobacco; type: in vivo, Nicotiana tabacum; details: for local tissue death after infiltration of tobacco leaves: 1 mM AMP-PCP, 1 mM ATP, apyrase, hexokinase plus glucose; for state of tobacco plant after treatment of a leaf: 5 mM AMP-PCP or equivalent amount of ATP, after 4 days
Procedure: as §1

[7] = tested on: tobacco plants; assay: Foliar spray on soil-grown tobacco plants; details: 5 mM in 0.02% Tween 20, 2 mL spray, three days after treatment
[8] = tested on: Arabidopsis cell cultures; assay: H2O2 accumulation after elicitor treatment; type: cell-based; details: exogenous ATP with elicitor
[9] = tested on: Black Mexican sweet corn cells; assay: Cell viability of corn suspension cells; type: cell-based, Zea mays; details: 1 mM ATP, 1 mM AMP-PCP, 100 units/mL apyrase, 200 units/mL hexokinase; 100 mM glucose in culture
[10] = tested on: Arabidopsis cell suspension cultures; assay: 2-D DIGE protein spot abundance, AMP-PCP treatment; type: cell-based; details: 50 μM AMP-PCP vs water, 72 hours

## Nc1ncnc2c1ncn2[C@@H]1O[C@H](COP(=O)(O)OP(=O)(O)OP(=O)(O)O)[C@@H](O)[C@H]1O [ATP]
[1]
  effect of exogenous ATP on reduction in cell viability caused by Ps. syringae or Fusarium elicitor: substantially negated
[2]
  Effects on Arabidopsis plants after foliar application: remained healthy and None
[3]; adding exogenous ATP
  resistance of plants to xenobiotics: decreased the resistance of plants to xenobiotics
[4]
  cell viability / cell death, in words: did not cause death of treated cells
[5]
  necrotic lesions after local leaf infiltration: did not result in cell death
[6]
  local tissue death after infiltration of tobacco leaves: did not
  state of tobacco plant after treatment of a leaf: remained entirely healthy
[7]
  state of tobacco plants: unaffected
[8]
  H2O2 accumulation: failed to prevent H2O2 accumulation
[9]
  viability of corn cells: did not affect the viability of the cells

## Nc1nc2c(ncn2[C@@H]2O[C@H](COP(=O)(O)OP(=O)(O)OP(O)(O)=S)[C@@H](O)[C@H]2O)c(=O)[nH]1 [GTP-γ-S, guanosine 5′-(γ-thio)triphosphate]
[2]
  Effects on Arabidopsis plants after foliar application: has herbicidal properties; also recorded: Phytotoxic

## Nc1ncnc2c1ncn2[C@@H]1O[C@H](COP(=O)(O)OP(=O)(O)OP(O)(O)=S)[C@@H](O)[C@H]1O [ATP-γ-S, adenosine 5′-(γ-thio)triphosphate]
[2]
  Effects on Arabidopsis plants after foliar application: had herbicidal activity; also recorded: Phytotoxic

## Nc1ncnc2c1ncn2[C@@H]1O[C@H](COP(=O)(O)OP(=O)(O)O)[C@@H](O)[C@H]1O [ADP, adenosine 5′-diphosphate]
[2]
  Effects on Arabidopsis plants after foliar application: not phytotoxic and None

## Nc1ncnc2c1ncn2[C@@H]1O[C@H](COP(=O)(O)OP(=O)(O)NP(=O)(O)O)[C@@H](O)[C@H]1O [AMP-PNP, adenosine 5′-(β,γ-imido)triphosphate]
[2]
  Effects on Arabidopsis plants after foliar application: had herbicidal activity; also recorded: Phytotoxic

## Nc1ncnc2c1ncn2C1OC(COP(=O)(O)OP(=O)(O)CP(=O)(O)O)C(O)C1O (stereo not drawn) [AMP-PCP, β,γ-methyleneadenosine 5′-triphosphate]
[4]; apyrase 0-100 units/mL, hexokinase 0-200 units/mL with 100 mM glucose, AMP-PCP 0-1.5 mM
  cell viability with increasing concentration (dose-response), in words: loss in cell viability
[5]
  necrotic lesions after local leaf infiltration: development of necrotic lesions in the area where the application was made within 2 days of treatment; also recorded: localised necrotic lesions
[6]
  local tissue death after infiltration of tobacco leaves: caused localised tissue death
  state of tobacco plant after treatment of a leaf: not only had the treated leaf died (white arrowhead), but so too had portions of some upper, untreated leaves
[7]
  state of tobacco plants: started to die
[9]
  viability of corn cells: caused significant cell death
[10]
  Ratio, spot 613 H84453 Probable heat shock protein [imported]: −1.26
  Ratio, spot 690 gi30693102 NADH dehydrogenase (ubiquinone), mitochondrial: −1.44
  Ratio, spot 703 Luminal binding protein 1 precursor (BiP-1): 1.29
  Ratio, spot 707 Luminal binding protein 1 precursor (BiP-1): 1.45
  Ratio, spot 740 Heat shock cognate 70 kDa protein 2 (hsc70-2): −1.22
  Ratio, spot 778 gi1072473 dnaK-type molecular chaperone hsc70.1: 1.15
  Ratio, spot 795 gi15232682 Heat shock protein hsc70-3: 1.2
  Ratio, spot 906 gi15219234 ATPase 70 kDa subunit-related protein: 1.19
  Ratio, spot 1063 gi30687521 Putative protein disulfide isomerase: 1.24
  Ratio, spot 1069 gi15232827 Threonine ammonia lyase: −1.23
  Ratio, spot 1074 gi11094242 Cytosolic phosphoglucose isomerase: 1.2
  Ratio, spot 1098 gi288063 Ketol-acid reductoisomerase: −1.12
  Ratio, spot 1135 gi9082270 Alanine aminotransferase: 1.2
  Ratio, spot 1148 gi21593375 Unknown protein: 1.24
  Ratio, spot 1155 gi30684419 Dihydrolipoamide dehydrogenase 2, mitochondrial: 1.34
  Ratio, spot 1187 gi21954071 Putative alanine aminotransferase: 1.41
  Ratio, spot 1196 gi14916970 ATP synthase alpha chain, mitochondrial: 1.31
  Ratio, spot 1200 gi15241168 Tubulin alpha-3/alpha-5 chain (TUA3): 1.35
  Ratio, spot 1205 gi2493132 Vacuolar ATP synthase subunit B isoform 2: 1.24
  Ratio, spot 1229 H+-transporting ATP synthase beta chain: 1.4
  Ratio, spot 1241 Enolase (2-phospho-D-glycerate hydrolase): 1.39
  Ratio, spot 1245 H+-transporting ATP synthase beta chain: 1.23
  Ratio, spot 1254 gi15227559 Tubulin beta-7 chain: −1.2
  Ratio, spot 1257 Enolase (2-phospho-D-glycerate hydrolase): 1.51
  Ratio, spot 1264 Enolase (2-phospho-D-glycerate hydrolase): 1.32
  Ratio, spot 1281 gi15234516 Putative thioredoxin: 1.23
  Ratio, spot 1282 Adenosylhomocysteinase: 1.46
  Ratio, spot 1292 Adenosylhomocysteinase: 1.29
  Ratio, spot 1439 gi14594802 Translation initiation factor elf-4A1: 1.84
  Ratio, spot 1460 gi7485313 Hypothetical protein F10M10.120: −1.1
  Ratio, spot 1481 gi15234354 S-adenosylmethionine synthetase 2: −1.3
  Ratio, spot 1497 gi21536853 Putative phosphoglycerate kinase: 1.47
  Ratio, spot 1516 Putative S-adenosylmethionine synthetase: 1.22
  Ratio, spot 1649 gi21593388 12-oxophytodienoate reductase (OPR1): −1.22
  Ratio, spot 1718 gi15229530 Glutamine synthetase-related protein: −1.13
  Ratio, spot 1748 gi21593240 GAPDH C subunit (GapC): 1.21
  Ratio, spot 1817 gi3435286 GAPDH C subunit (GapC): 1.13
  Ratio, spot 1868 gi15226185 Putative fructose-bisphosphate aldolase: −1.35
  Ratio, spot 1892 gi14334740 Putative fructose-bisphosphate aldolase: −1.71
  Ratio, spot 1920 gi15237888 Putative NADP-dependent oxidoreductase (P1): −1.45
  Ratio, spot 1943 gi25283601 Malate dehydrogenase [EC 1.1.1.37], chloroplast: 1.22
  Ratio, spot 1959 Malate dehydrogenase [NAD], mitochondrial: −1.11
  Ratio, spot 1964 gi15232468 Malate dehydrogenase [NAD], mitochondrial: 1.21
  Ratio, spot 2221 gi21593226 Putative esterase D: −1.24
  Ratio, spot 2282 gi15228883 Expressed protein: −1.74
  Ratio, spot 2370 gi18390982 ATP-dependent Clp protease proteolytic subunit: 1.38
  Ratio, spot 2422 gi20260140 Multicatalytic endopeptidase complex alpha subunit: −1.21
  Ratio, spot 2443 L-ascorbate peroxidase 1, cytosolic (APX1): −2.51
  Ratio, spot 2552 L-ascorbate peroxidase 1, cytosolic (APX1): −1.47
  Ratio, spot 2562 gi15224582 Putative glutathione S-transferase: 1.4
  Ratio, spot 2605 gi15239652 Putative quinone reductase: 1.38
  Ratio, spot 2626 gi15228805 20S proteasome beta subunit D (PBD1): 1.14
  Ratio, spot 2690 gi20138157 Phospholipid hydroperoxide glutathione peroxidase: 1.21
  Ratio, spot 2734 gi18412406 Expressed protein: −1.93
  Ratio, spot 2832 gi30697295 Actin depolymerizing factor 3-like prptein: −1.29
  Ratio, spot 2842 gi15218373 40S ribosomal protein S12 (RPS12A): −1.3

## O=C[C@H](O)[C@@H](O)[C@H](O)[C@H](O)COP(=O)(O)O [glucose-6-phosphate]
[4]
  cell viability / cell death, in words: did not affect cell viability

## Nc1ncnc2c1ncn2[C@@H]1O[C@H](COP(=O)(O)CP(=O)(O)O)[C@@H](O)[C@H]1O [α,β-methyladenosine 5′ diphosphate]
[3]; co-administered with cycloheximide
  cycloheximide-resistance of plants over-expressing ecto-ATPase: lost their cycloheximide-resistance

## [Na+].[Na+].[Na+].[O-]P([O-])([O-])=S [NaPO3S, sodium thiophosphate]
[2]
  Effects on Arabidopsis plants after foliar application: did not cause death and None

## Nc1nc2c(ncn2[C@@H]2O[C@H](COP(=O)(O)OP(=O)(O)OP(=O)(O)O)[C@@H](O)[C@H]2O)c(=O)[nH]1 [GTP, guanosine 5′-triphosphate]
[2]
  Effects on Arabidopsis plants after foliar application: does not and None

## Nc1ncnc2c1ncn2[C@@H]1O[C@H](COP(=O)(O)O)[C@@H](O)[C@H]1O [AMP]
[4]
  cell viability / cell death, in words: did not result in any change in cell viability
